IC50 data for 28 compounds are collected here from patent publication US20200069691A1, “HETEROCYCLIC COMPOUNDS AS HIV PROTEASE INHIBITORS” (Merck Sharp & Dohme Corp., priority 2016, published 2020).

The assay concerns the target T1, wild-type HIV-1 protease (Human immunodeficiency virus type 1 group M subtype B, UniProt P04585).
T1 construct: Escherichia coli expressed wild-type HIV-1 protease protein
The assay can be described thus: Assay for Inhibition of Microbial Expressed HIV Protease (peptide substrate cleavage, LC-MS/MS readout). The assay is classed as biochemical. Particulars: E. coli expressed wild-type HIV-1 protease, mean of at least two independent experiments, read-out: HIV Pr Enzyme HIV1 PR IC50. The procedure, abridged: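 E. coli-expressed wild-type HIV-1 protease ([…]) was preincubated with inhibitor 30 min at room temperature in pH 5.5 acetate buffer (100 mM NaCl, 0.1% BSA). Then 400 μM octapeptide substrate was added and reacted 1 h at 30 °C; inhibition came from LC-MS/MS product peak areas, mean of ≥2 experiments.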

The term IC50 denotes the point on the concentration scale where inhibition reaches its midpoint. `CC(C)CC1(c2cccc(F)c2)NC(=N)N(Cc2cccc(C(=O)N3Cc4nccnc4C3)c2)C1=O` (stereo not shown) [Compound 210, 3-[3-(5,7-dihydro-6H-pyrrolo[3,4-b]pyrazin-6-ylcarbonyl)benzyl]-5-(3-fluorophenyl)-2-imino-5-(2-methylpropyl)imidazolidin-4-one]: the IC50 is 9.12 nM.
The figure for `N=C1NC(c2ccc(F)cc2)(c2ccc(F)cc2)C(=O)N1Cc1cccc(C(=O)N2Cc3cnc(C(F)(F)F)nc3C2)c1` [Compound 211, 5,5-bis(4-fluorophenyl)-2-imino-3-(3-{[2-(trifluoromethyl)-5,7-dihydro-6H-pyrrolo[3,4-d]pyrimidin-6-yl]carbonyl}benzyl) imidazolidin-4-one] is 29.1 nM; for `N=C1NC(c2ccc(F)cc2)(c2cccc(Br)c2)C(=O)N1Cc1cccc(C(=O)N2Cc3[nH]nc(C(F)(F)F)c3C2)c1` (stereo not shown) [Compound 212, 5-(3-bromophenyl)-5-(4-fluorophenyl)-2-imino-3-(3-{[3-(trifluoromethyl)-4,6-dihydropyrrolo [3,4-c]pyrazol-5(1H)-yl]carbonyl}benzyl) imidazolidin-4-one] it is 9.49 nM; for `N=C1NC(c2ccccc2)(c2ccc(Br)cc2)C(=O)N1Cc1cccc(C(=O)N2Cc3ccccc3C2)c1` (stereo not shown) [Compound 213, 5-(4-bromophenyl)-3-[3-(1,3-dihydro-2H-isoindol-2-ylcarbonyl)benzyl]-2-imino-5-phenylimidazolidin-4-one] it is 9.77 nM.
The figure for `Cc1cc2c(cn1)CN(C(=O)c1cccc(CN3C(=N)NC(c4ccccc4)(c4ccccc4)C3=O)c1)C2` [Compound 214, 2-imino-3-{3-[(6-methyl-1,3-dihydro-2H-pyrrolo[3,4-c]pyridin-2-yl)carbonyl]benzyl}-5,5-diphenylimidazolidin-4-one] is 9.81 nM; for `N=C1NC(c2ccc(F)cc2)(c2ccc(F)cc2)C(=O)N1Cc1cccc(C(=O)N2Cc3cncnc3C2)c1` [Compound 215, 3-[3-(5,7-dihydro-6H-pyrrolo[3,4-d]pyrimidin-6-ylcarbonyl)benzyl]-5,5-bis(4-fluorophenyl)-2-iminoimidazolidin-4-one] it is 23 nM.
The same measure for `CC(C)CC[C@]1(c2ccccc2)NC(=N)N([C@H](C)c2cccc(C(=O)N3Cc4cncnc4C3)c2)C1=O` [Compound 216, 3-{(1R)-1-[3-(5,7-dihydro-6H-pyrrolo[3,4-d]pyrimidin-6-ylcarbonyl)phenyl]ethyl}-2-imino-5-(3-methylbutyl)-5-phenylimidazolidin-4-one]: 10.2 nM.
Turning to `CC(C)CC[C@]1(c2ccccc2)NC(=N)N([C@H](C)c2cccc(C(=O)N3Cc4nccnc4C3)c2)C1=O` [Compound 217, 3-{(1R)-1-[3-(5,7-dihydro-6H-pyrrolo[3,4-b]pyrazin-6-ylcarbonyl)phenyl]ethyl}-2-imino-5-(3-methylbutyl)-5-phenylimidazolidin-4-one], the 50% inhibitory concentration (IC50) is 10.3 nM.
The same measure for `CC(C)CCC1(c2ccccc2)NC(=N)N(Cc2cccc(C(=O)N3Cc4cccnc4C3)c2)C1=O` (stereo not shown) [Compound 218, 3-[3-(5,7-dihydro-6H-pyrrolo[3,4-b]pyridin-6-ylcarbonyl)benzyl]-2-imino-5-(3-methylbutyl)-5-phenylimidazolidin-4-one]: 10.5 nM; for `N=C1NC(c2ccccc2)(c2ccccc2)C(=O)N1Cc1cccc(C(=O)N2Cc3nccnc3C2)c1` [Compound 219, 3-[3-(5,7-dihydro-6H-pyrrolo[3,4-b]pyrazin-6-ylcarbonyl)benzyl]-2-imino-5,5-diphenylimidazolidin-4-one]: 11 nM; for `CN(C)c1ncnc2c1CN(C(=O)c1cccc(CN3C(=N)NC(c4ccc(F)cc4)(c4ccc(F)cc4)C3=O)c1)C2` [Compound 220, 3-(3-{[4-(dimethylamino)-5,7-dihydro-6H-pyrrolo[3,4-d]pyrimidin-6-yl]carbonyl}benzyl)-5,5-bis(4-fluorophenyl)-2-iminoimidazolidin-4-one]: 11 nM.
As for `COC(=O)N1CCN(C(=O)c2cccc([C@@H](C)N3C(=N)N[C@](CCC(C)C)(c4ccccc4)C3=O)c2)CC1` [Compound 221, methyl 4-[(3-{(1R)-1-[2-imino-4-(3-methylbutyl)-5-oxo-4-phenyl-imidazolidin-1-yl]ethyl}phenyl)-carbonyl]piperazine-1-carboxylate], the IC50 turned out to be 11.1 nM.
The same measure for `CC(C)CC1(c2ccccc2)NC(=N)N(Cc2cccc(C(=O)N3Cc4cnc(C#N)nc4C3)c2)C1=O` (stereo not shown) [Compound 222, 6-[(3-{[2-imino-4-(2-methylpropyl)-5-oxo-4-phenylimidazolidin-1-yl]methyl}phenyl)carbonyl]-6,7-dihydro-5H-pyrrolo[3,4-d]pyrimidine-2-carbonitrile]: 11.1 nM.
As for `CC(c1cccc(C(=O)N2Cc3ccccc3C2)c1)N1C(=N)NC(c2ccccc2)(c2ccccc2)C1=O` (stereo not shown) [Compound 224, 3-{1-[3-(1,3-dihydro-2H-isoindol-2-ylcarbonyl)phenyl]ethyl}-2-imino-5,5-diphenylimidazolidin-4-one], the IC50 came out at 11.9 nM.
Consider `CCC(c1cccc(C(=O)N2Cc3ccccc3C2)c1)N1C(=N)NC(c2ccccc2)(c2ccccc2)C1=O` (stereo not shown) [Compound 225, 3-{1-[3-(1,3-dihydro-2H-isoindol-2-ylcarbonyl)phenyl]propyl}-2-imino-5,5-diphenylimidazolidin-4-one], for which the IC50 came to 11.9 nM.
The same measure for `Cc1cc2c(cn1)CN(C(=O)c1cccc(CN3C(=N)NC(c4ccc(F)cc4)(c4ccc(F)cc4)C3=O)c1)C2` [Compound 226, 5,5-bis(4-fluorophenyl)-2-imino-3-{3-[(6-methyl-1,3-dihydro-2H-pyrrolo[3,4-c]pyridin-2-yl)carbonyl]benzyl} imidazolidin-4-one]: 12.4 nM; for `CC(C)CCC1(c2ccccc2)NC(=N)N(Cc2cccc(C(=O)N3Cc4cncnc4C3)c2)C1=O` (stereo not shown) [Compound 227, 3-[3-(5,7-dihydro-6H-pyrrolo[3,4-d]pyrimidin-6-ylcarbonyl)benzyl]-2-imino-5-(3-methylbutyl)-5-phenylimidazolidin-4-one]: 12.6 nM.
For `C[C@H](c1cccc(C(=O)N2Cc3cncnc3C2)c1)N1C(=N)NC(c2ccccc2)(c2ccccc2)C1=O` [Compound 228, 3-{(1R)-1-[3-(5,7-dihydro-6H-pyrrolo[3,4-d]pyrimidin-6-ylcarbonyl)phenyl]ethyl}-2-imino-5,5-diphenylimidazolidin-4-one], the IC50 was determined as 13.1 nM.
Take `CC(C)CCC1(c2ccc(F)cc2)NC(=N)N(Cc2cccc(C(=O)N3Cc4ccccc4C3)c2)C1=O` (stereo not shown) [Compound 229, 3-[3-(1,3-dihydro-2H-isoindol-2-ylcarbonyl)benzyl]-5-(4-fluorophenyl)-2-imino-5-(3-methylbutyl)imidazolidin-4-one]: the 50% inhibitory concentration (IC50) is 13.1 nM.
The figure for `N=C1NC(c2ccccc2)(c2ccccc2)C(=O)N1Cc1cccc(C(=O)N2CCN(c3ncccn3)CC2)c1` [Compound 230, 2-imino-5,5-diphenyl-3-{3-[(4-pyrimidin-2-ylpiperazin-1-yl)carbonyl]benzyl} imidazolidin-4-one] is 13.1 nM; for `C[C@H](c1cccc(C(=O)N2Cc3ccccc3C2)c1)N1C(=N)NC(c2ccc(F)cc2)(c2ccc(F)cc2)C1=O` [Compound 231, 3-{(1R)-1-[3-(1,3-dihydro-2H-isoindol-2-ylcarbonyl)phenyl]ethyl}-5,5-bis(4-fluorophenyl)-2-iminoimidazolidin-4-one] it is 13.3 nM; for `N=C1NC(c2ccc(F)cc2)(c2ccc(F)cc2)C(=O)N1Cc1cccc(C(=O)N2Cc3ccc(F)cc3C2)c1` [Compound 232, 3-{3-[(5-fluoro-1,3-dihydro-2H-isoindol-2-yl)carbonyl]benzyl}-5,5-bis(4-fluorophenyl)-2-iminoimidazolidin-4-one] it is 13.5 nM.
The same measure for `N=C1NC(c2ccccc2)(c2ccccc2)C(=O)N1Cc1cccc(C(=O)N2Cc3ccc(C(F)(F)F)cc3C2)c1` [Compound 233, 2-imino-5,5-diphenyl-3-(3-{[5-(trifluoromethyl)-1,3-dihydro-2H-isoindol-2-yl]carbonyl}benzyl)-imidazolidin-4-one]: 14 nM; for `COC(=O)N1CCN(C(=O)c2cccc(CN3C(=N)NC(c4ccc(F)cc4)(c4cccc(-c5cccc(C#N)c5)c4)C3=O)c2)CC1` (stereo not shown) [Compound 234, methyl 4-[(3-{[4-(3′-cyanobiphenyl-3-yl)-4-(4-fluorophenyl)-2-imino-5-oxoimidazolidin-1-yl]methyl}phenyl)-carbonyl]piperazine-1-carboxylate]: 14.2 nM.
The figure for `CC(C)CC1(c2ccccc2)NC(=N)N(Cc2cccc(C(=O)N3Cc4nccnc4C3)c2)C1=O` (stereo not shown) [Compound 235, 3-[3-(5,7-dihydro-6H-pyrrolo[3,4-b]pyrazin-6-ylcarbonyl)benzyl]-2-imino-5-(2-methylpropyl)-5-phenylimidazolidin-4-one] is 14.4 nM; for `CCCC1(c2ccccc2)NC(=N)N(Cc2cccc(C(=O)N3Cc4ccccc4C3)c2)C1=O` (stereo not shown) [Compound 236, 3-[3-(1,3-dihydro-2H-isoindol-2-ylcarbonyl)benzyl]-2-imino-5-phenyl-5-propylimidazolidin-4-one] it is 14.4 nM; for `CC(C)C[C@]1(c2ccccc2)NC(=N)N([C@H](C)c2cccc(C(=O)N3Cc4nccnc4C3)c2)C1=O` [Compound 237, 3-{(1R)-1-[3-(5,7-dihydro-6H-pyrrolo[3,4-b]pyrazin-6-ylcarbonyl)phenyl]ethyl}-2-imino-5-(2-methylpropvl)-5-phenylimidazolidin-4-one] it is 14.5 nM.
As for `N=C1NC(c2ccccc2)(c2ccccc2)C(=O)N1Cc1cccc(C(=O)N2CCN(c3ccccc3Cl)CC2)c1` [Compound 238, 3-(3-{[4-(2-chlorophenyl)piperazin-1-yl]carbonyl}benzyl)-2-imino-5,5-diphenylimidazolidin-4-one], the half-maximal inhibitory concentration (IC50) is 15 nM.
